Test results: the METLIN SMRT retention time set (Domingo-Almenara et al. 2019)

Assay: gradient 5% acetonitrile 3 min, to 50% in 2 min, to 85% in 15 min, held 3 min, 100 µL/min
Settings: column: Zorbax Extend-C18 2.1 x 50 mm; eluents: water / acetonitrile, 0.1% formic acid
Method in brief: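 A Zorbax Extend-C18 column (2.1 × 50 mm, 1.8 μm) run at 100 μL/min with water and acetonitrile, both containing 0.1% formic acid, separated mixtures of ~100 pure standards. The HPLC was coupled to a quadrupole time-of-flight mass spectrometer operated in positive and negative ionization mode, with dead and dwell volumes of 40 μL and 900 μL. Each retention time was taken from a computationally picked adduct peak that was then manually inspected.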

Structure (SMILES)	RP-LC retention time [s]
C=CCn1nc2ccc(S(=O)(=O)N3CCCC3)cn2c1=O	706
O=C(N[C@H]1C[C@@H]2C[C@H]1N(C(=O)c1ccccn1)C2)c1ccccc1	622
CCOC(=O)c1nc(NCc2cc(OC)ccc2OC)c2ccccc2n1	768
CCN1CCCn2cc(S(=O)(=O)NCc3ccc(C)o3)cc2C1=O	676
CC(O)C1CCN(Cc2ccc(Br)o2)CC1 (stereo not given)	566
COc1ccc(-c2nn3c(-c4ccccc4F)nnc3s2)cc1	935
COc1ccc(-c2ccnc3cc(C(=O)Nc4ccc5c(c4)OCO5)nn23)cc1OC	848
COc1ccc(NC(=O)Cn2c(N3CCCCC3)nc(C)cc2=O)cc1F	717
COC(=O)CN1C(=O)C2CCCN2C(=O)c2ccccc21 (stereo not given)	634
CCN(CC)C(=O)c1ccc2c(c1)N(CC(=O)NCCN1CCN(C)CC1)C(=O)CO2	567
Cc1nnc2ccc(S(=O)(=O)Nc3ccc(F)cc3)cn12	670
CC1Oc2ccc(S(=O)(=O)N3CCC(C(=O)Nc4ccc(C(C)C)cc4)CC3)cc2NC1=O (stereo not given)	916
COc1ccc2c(c1)C1(CCN(S(=O)(=O)c3cccc(C)c3)C1)C(=O)N2 (stereo not given)	840
Cc1cc(C)c(NC(=O)Cn2cnc(C)c(C)c2=O)c(C)c1	674
Cc1ccc(S(=O)(=O)N2CCCC2c2nc(-c3ccccc3C)no2)cc1Cl (stereo not given)	1290
O=C(CC(c1ccccc1)c1ccccc1)NCCCn1ncccc1=O	702
Fc1ccc(OCc2nc(C3CCNC3)no2)cc1 (stereo not given)	626
Cc1ccc(NC(=O)N2CCC(CC(=O)N3CCCCC3)CC2)cc1C	793
CCOC(=O)N1CCN(C(=O)Cc2csc(NC(=O)c3cnccn3)n2)CC1	598
Cc1nc(N2CCCC2)c2c(C(=O)NCCCc3ccccc3)c(C)oc2n1	754
O=C(Nc1ccc2c(c1)CN(C(=O)c1cccs1)CC2)c1cnccn1	708
COCc1cc(=O)n(CC(=O)Nc2cccc(Cl)c2)c(N2CCOCC2)n1	884
COc1cc(N2C=C(C#N)S(=O)(=O)c3ccc(Cl)cc32)c(OC)cc1Cl	1050

Structure (SMILES)	RP-LC retention time [s]
COc1ccc(CNC(=O)Cn2ccc3ccc(-c4nnc(C)o4)cc32)cc1	1080
Cn1c(=O)n([C@H]2CCN(C(=O)c3ccc(Cn4ccnc4)o3)C2)c2ncccc21	573
CCc1nc(N2CCc3ccccc3C2)ncc1C(=O)O	953
CCN(CC)C(=O)N1CCCN(S(C)(=O)=O)C(c2ccccc2)CC(=O)NCC1 (stereo not given)	700
Cc1cc(C)cc(NC(=O)C2CC(=O)N(CCc3c[nH]c4ccc(C)cc34)C2)c1 (stereo not given)	923
CN(C)CCCN1c2ccccc2Sc2ccc3ccccc3c21	772
CCc1ccc(C2=C(C)C(N3CCC(C(=O)NCCc4ccco4)CC3)=NS2(=O)=O)cc1	882
COc1cccc(-n2ccn3cc(-c4ccc5c(c4)OCO5)nc3c2=O)c1	775
Cc1noc(C2CN(C(=O)c3ccc(=O)n(C)n3)C2)n1	530
Cc1ccccc1Nc1nc(N)c2c(F)cccc2n1	610
COc1ccc(Cl)c2c(=O)c3c([nH]c12)CCN(CC(=O)Nc1ccc2c(c1)OCCO2)C3	610
Cc1ccc(C)c(NC(=O)Cn2c(C(C)C)nc3c(c2=O)CCN(Cc2ccccc2)C3)c1	734
COc1cc(N2C(=O)CC(N3CCC(C(N)=O)CC3)C2=O)cc(OC)c1OC (stereo not given)	563
O=C(NC1CC1)[C@@H]1C[C@H](Oc2ccccc2)CN1C(=O)COc1ccccc1	797
O=C(C1=NN(Cc2cccc(F)c2)c2ccc(Cl)cc2S1(=O)=O)N1CCOCC1	875
COc1ccc(C)cc1NC(=O)N1CCC2(CC1)NC(=O)c1cccc(Cl)c1N2	819
CC(=O)N1CCN(c2nc3c(s2)CC(C(=O)NCc2cc(F)cc(F)c2)CC3)CC1 (stereo not given)	597
COCCCNC(=O)C1CCN(c2nc3ccc(-c4ccccc4)nc3s2)CC1	835
CCOC(=O)c1noc2nc(C)nc(N3CCN(c4ccc(F)cc4)CC3)c12	1070
COc1ccccc1N1C(=O)CC(Sc2ccccc2N)C1=O (stereo not given)	865
Cc1ccc(N2CCC(NC(=O)c3ccc(C(F)(F)F)cc3)C2=O)cc1 (stereo not given)	953
CNC(=O)c1cc(Oc2ccc(NC(=O)Nc3ccc(Cl)c(C(F)(F)F)c3)cc2)ccn1	1190
Cc1ccc2nc(-c3ccccc3O)c(Nc3ccc(Cl)cc3)n2c1	781

Structure (SMILES)	RP-LC retention time [s]
CC(C)c1noc(-c2ccnc(-n3cnc(C(=O)NC(C)c4ccccc4)c3)c2)n1 (stereo not given)	1000
CCc1nn2c(CNC(=O)C3CCN(C(C)=O)CC3)c(-c3ccccc3)nc2s1	664
CCCC(=O)NCCn1c(=O)n(Cc2ccccc2)c2cccnc21	718
CCc1noc(NC(C)=O)c1-c1ccc(C)c(S(=O)(=O)NCCc2ccccc2)c1	855
Cc1ccc(Cn2nc3c(S(=O)(=O)N4CCOCC4)cccn3c2=O)c(C)c1	849
CCc1ccc(-c2csc(Nc3ccc(Br)cn3)n2)cc1	1330
CCN(CC)S(=O)(=O)c1ccc(C)c(-c2nnc(-c3ccccc3)o2)c1	1090
Cc1ccc(Cl)cc1NS(=O)(=O)c1ccc2onc(C(=O)N3CCCC3)c2c1	1030
CCOC(=O)c1c(C)c(CCC(=O)N2CCC(C)CC2)n(C)c1C	950
O=C(c1cn(-c2cc(N3CCSCC3)ncn2)cn1)N1CC=C(c2ccccc2)CC1	992
Cc1ccc2c(NCc3ccccc3)c(-c3nc(C4CC4)no3)cnc2n1	755
CCc1ccc(CNC(=O)c2c(C)sc3ccn(CC)c(=O)c23)cc1	959
O=C(NCCCN1CCOCC1)C1CCc2sc(C(=O)N3CCCC3)cc2C1 (stereo not given)	576
CCOC(=O)c1noc2ncnc(N(Cc3ccccc3)C(C)C)c12	1080
CN1C(=O)CCC2(CNC(=O)NCCc3ccccc3)CCCC=C12 (stereo not given)	763
COCc1ncc(C)n1CC1CN(C(=O)C2(c3ccccc3)CC2)C1	621
CCCN(CCC)[C@@H]1CCc2cccc(O)c2C1	691
CC1CN(C(=O)Cn2cc(SCC(=O)N3CCCCC3)c3ccccc32)CC(C)O1 (stereo not given)	783
O=C1Nc2cc(C(=O)N3CCC(N4CCCCC4)CC3)ccc2N2CCCCC12 (stereo not given)	581
O=C(c1ccco1)N1CCN(C(=O)c2nc(-c3ccc(Cl)cc3)n3c2CCCCC3)CC1	741
CCCCS(=O)(=O)N1CCC2(CC1)C(=O)N(C)C(=O)N2C	671
O=C(Nc1ccc2c(c1)CN(C(=O)c1cccs1)CC2)c1ccccc1C(F)(F)F	821
CCOc1ccc2c(n1)CCN(C(=O)Nc1ccc(C)c(C)c1)C2	900

Structure (SMILES)	RP-LC retention time [s]
CCCCNC(=O)c1cnn(-c2ccc(-c3nc(C)no3)cn2)c1C	853
CCCCN(Cc1ccco1)C(=O)Cn1nc(Cc2ccncc2)c2ccccc2c1=O	679
CC(=O)c1cccc(NC(=O)c2cnn(-c3ccc(Br)cc3)c2)c1	940
O=C(NCCc1cccs1)C1CCN(c2cc(N3CCCCC3)ncn2)CC1	672
O=C(C1CCCN(c2ncnc3c2nc2n3CCCCC2)C1)N1CCN(c2ccccn2)CC1 (stereo not given)	592
O=C(Cc1nc(-c2cnccn2)n[nH]1)NCc1ccccc1	583
O=C(CCS(=O)(=O)c1ccccc1)N1CCN(CC(F)(F)F)CC1	711
COc1cccc(NC(=O)N2CCC3(CC2)N=C(c2cccc(Cl)c2)C(=O)N3)c1	878
CCc1ccc(NS(=O)(=O)c2cc3c4c(c2)CCC(=O)N4CCC3)cc1	906
COc1cccc(NC(=O)N2CCN(c3cc(C)nc(Nc4ccc(C)cc4)n3)CC2)c1	687
O=C(NCCC1=CCCCC1)C1CCN(C(=O)c2cccn2-c2cccnc2)CC1	1090
O=C(Nc1ccc(-c2nc3ccccc3o2)cc1)Nc1c(F)cccc1F	870
CC(C)(C)c1csc(-c2csc(S(=O)(=O)NCc3ccccc3)c2)n1	1230
CC(=O)N(C)Cc1nc2ccccc2n1CCOc1ccccc1Cl	599
COc1cc(Cl)ccc1C(=O)Nc1ccc2c(c1)Sc1ncccc1C(=O)N2C	915
COc1ccc(CNC(=O)C2(C)CCN(S(=O)(=O)c3ccc(Br)s3)CC2)cc1	961
CC1CN(Cc2nc3c(c(=O)n(C)c(=O)n3C)n2Cc2ccccc2Cl)CC(C)O1 (stereo not given)	751
CCOc1cc(CNCCc2c[nH]c3ccccc23)ccc1Oc1nnnn1-c1ccccc1	780
Cn1nc(-c2nc(-c3cccc(F)c3)no2)c2c1CCN(C(=O)C1CCCO1)C2 (stereo not given)	789
Cn1nc2n(c1=O)CCC(NC(=O)c1n[nH]c3c1CC(C(C)(C)C)CC3)CC2 (stereo not given)	724
CCn1cc(CCNC(=O)Nc2cccc(C)c2C)c2cccnc21	720
